Measured values as given in patent publication US20020028849A1, “Use of retinol in assisted-reproduction protocols” (priority 2000, published 2002).

Columns and labels:
[1] = tested on: superovulated ewes (embryos recovered at the morula stage); assay: Experiment 1: retinoid treatment of superovulated ewes, in vitro development of recovered morula-stage embryos; type: in vivo, sheep; settings: for embryo quality score (grade 1=excellent to 4=degenerate) immediately after collection / in vitro blastocyst formation / embryonic hatching rate in vitro: ROH 500,000 IU, RA 15 mg; for embryo quality score (grade 1=excellent to 4=degenerate) immediately after collection / in vitro blastocyst formation: CIS 15 mg on first and last day of FSH; for embryo quality score (grade 1=excellent to 4=degenerate) immediately after collection: morula stage; for in vitro blastocyst formation: morulae cultured 72 h in TCM 199; for embryonic hatching rate in vitro: CIS 15 mg, morulae cultured 72 h
Experimental: (§1) Referring now to FIGS. 1 and 2, a series of experiments were carried out to examine the effect of retinoid administration on superovulated sheep. In these experiments, the estrous cycles of sexually mature crossbred ewes were synchronized using progestin implants (Synchromate B) combined with prostaglandin F2-alpha (Lutalyse) injections, and superovulation was induced by multiple FSH injections. Briefly, animals were administered one progestin implant and 6 days later received two Lutalyse injections (15 mg i.m.) 12 hours apart. Superovulation was induced using a total of 24 units of FSH administered twice daily in decreasing doses over 3 days (5.5, 4.4, 3.3 units per injection, respectively) beginning 9-11 days after implant administration. Retinoid treatments were administered on the first and last day of FSH injections. Implants were removed at the time of the fifth FSH injection, and animals were checked for estrus 24 hours later. […] All animals were maintained on high-quality hay and fed ad libitum, with free-choice access to a sheep and goat mineral premix that contained 1 million IU vitamin A per pound.
In the first experiment, performed under decreasing day length (fall), 25 ewes were randomly assigned to one of the following treatments: (1) all-trans retinol (ROH; 500,000 IU, n=6); (2) all-trans retinoic acid (RA; 15 mg, n=6); (3) 9-cis retinoic acid (CIS; 15 mg, n=7); or (4) vehicle (Control; n=6), which was corn oil. Animals were surgically ovohysterectomized at 144 hours post-implant removal, and uteri were gently flushed twice with culture medium (tissue culture medium 199 [TCM 199]) to collect morula stage embryos. Two ewes from the RA group wer dropped from the study: one because of a total lack of response to the FSH treatment, the other because of overstimulation resulting in more than 50 ovulations with none of the ova fertilizing. This left 4 animals in the RA group, 5 in each of the ROH and Control groups, and 7 in the CIS group.
Embryos (morulae) collected in experiments 1 and 2 were categorized according to morphology, developmental stage, and quality based on a procedure developed for bovine embryos. See, Lindner and Wright, Theriogenology 1983; 20:407-416. Quality grades ranged from 1 to 4, with 1=excellent, 2=good, 3=poor, and 4=degenerate. One individual, who was unaware of treatments at the time, performed all of the grading.
In the first two experiments, morula-stage embryos were cultured in TCM 199 with Earle's salt supplemented with 10% FBS and 1 mM glutamine. See, Bavister BD. Studies on the developmental blocks in cultured hamster embryos. In: Bavister BD (ed.), The Mammalian Preimplantation Embryo: Regulation of Growth and Differentiation in vitro. New York:Plenum Press; 1987:219-249. The FBS had been twice stripped of low molecular weight molecules with charcoal, and retinol concentrations were below detection levels as determined by fluorescent analysis. See, Selvaraj and Susheela, Clin Chim Acta 1970; 27:165-170. In the third experiment, 1- to 4-cell embryos were cultured in SOF supplemented with 3 mg/ml BSA and essential and nonessential amino acids. See, Carolan et al., Theriogenology 1995; 43:1115-1128. Both media were prepared weekly, filtered through a 0.2 um filter, and allowed to equilibrate for 2 hours in a humidified atmosphere at 38.5° C. containing 5% CO2 in air.
Morula-stage embryos (experiments 1 and 2) were washed a minimum of three times in the outer well of organ culture dishes and then transferred with a minimum amount of medium into the inner well, which contained 3 ml of TCM 199. Embryos from each ewe were cultured in one dish, and there were no significant differences in the average number of embryos per dish between treatments. Embryos were cultured for 96 hours and observed daily for blastocyst formation and complete hatching from the zona pellucida. No further development was observed after 72 hours in culture, and all data presented reflect that time period. […]

[2] = tested on: superovulated ewes (embryos recovered at the morula stage); assay: Experiment 2: ROH treatment of superovulated ewes (winter), in vitro development of morula-stage embryos; type: in vivo, sheep
Experimental: as §1
The second experiment was a repetition of the first, with the exceptions that it was performed under increasing day length (winter) and only the ROH and Control treatments were administered (in combination with FSH) to 24 ewes (12 per treatment) not used in the previous experiment. One ewe from the Control group was dropped from the study for failure to respond to FSH treatment. […]
(§2) In the first two experiments, morula-stage embryos were cultured in TCM 199 with Earle's salt supplemented with 10% FBS and 1 mM glutamine. […] The FBS had been twice stripped of low molecular weight molecules with charcoal, and retinol concentrations were below detection levels as determined by fluorescent analysis. […]
(§3) Data were checked for normality and analyzed using the Statistical Analysis System (SAS Institute Inc., Cary, N.C.). […]

[3] = tested on: superovulated ewes (1- to 4-cell embryos); assay: Experiment 3: ROH treatment of superovulated ewes, in vitro development of 1- to 4-cell embryos; type: in vivo, sheep; settings: 1- to 4-cell embryos cultured in SOF
Experimental: as §1
The third study involved two identical experiments performed sequentially in the fall and winter. Results were not different between seasons, and the data were combined. A total of 24 ewes, not used in the previous experiments, received either ROH (n=12) or Control (n=12) treatment in combination with FSH, followed by natural mating at estrus, as in experiment 2. At 84 hours post-implant removal, ewes were salphincectomized and oviducts gently flushed with culture medium in order to recover 1- to 4-cell embryos.
as §2, with “glutamine. See, Bavister BD.” for “glutamine.”
as §3

[4] = tested on: in vitro produced bovine embryos (presumptive zygotes); assay: In vitro retinol treatment of presumptive zygotes, blastocyst formation; type: cell-based; settings: 7-8 days culture
Experimental: The effects of retinol and retinoic acid on early embryonic development of in vitro produced bovine embryos were investigated. Oocytes and their surrounding cumulus cells were collected from bovine ovaries, matured in vitro for 24 h and fertilized by standard procedures for 8-10 h. Presumptive zygotes were denuded of cumulus cells, washed and cultured in modified synthetic oviduct fluid (a standard culture medium) in the presence or absence of retinol ([…]) at 38.5° C. in a humidified atmosphere of 5% CO2 in air. Embryos were cultured for 7-8 days.
Blastocyst (a fluid filled ball of approximately 100 cells, containing a inner cell mass which gives rise to the fetus and a trophoblast which gives rise to the placenta) formation was used as an end point for in vitro development. The above experiment was performed three times using 210 embryos in each treatment group with 70 embryos/group (630 total, 210/treatment). Embryonic development to the blastocyst stage, expressed as % blastocyst/cleaved embryos, was control (no retinol)=28.33%, 1 uM Retinol=48.66%, 10 uM Retinol=57.33%.

[5] = tested on: recipient ewes receiving embryos from treated donor ewes; assay: Pregnancy rates after transfer of frozen embryos from retinol-treated superovulated ewes; type: in vivo, sheep
Source text: Twenty-four ewes were synchronized, superovulated and administered treatments, as described previously (Eberhardt, Will and Godkin. Biol Reprod 60, 1483-1487, 1999). Briefly, animals received a progestagen implant and six days later received two injections of prostaglandin F2-alpha (Lutalyse, Upjohn Co. Kalamazoo, Mich.) twelve hours apart. Superovulation was induced with 24 units of porcine follicle stimulating hormone (FSH, Sioux Biochemical, Sioux City, Iowa) in decreasing doses over 3 days beginning 9-11 days after implant administration. All-trans retinol was administered to twelve ewes in corn oil at 500,000 IU per injection on the first and last day of FSH injections. Control ewes (12) received corn oil without retinol.
Embryos at the morula stage of development (168 h post implant removal) were collected by gently flushing the uterus with phosphaste-buffered saline+2% bovine serum albumin (BSA) following surgical hysterectomy. Embryos were frozen by conventional methods (Leibo. Theriogenology 21: 767. 1984) using ethylene glycol as the cryoprotectant in a programmable freezer and stored in liquid N2. After three months, embryos were thawed briefly (30 seconds) at 37° C. and two embryos were transferred directly into the uterine horn of synchronized recipient ewes. Seven recipient ewes received embryos from retinol-treated ewes and 11 recipient ewes received embryos from control ewes. Pregnancy rates were determined by ultrasonography 30-40 days after transfer.

[6] = cited from earlier work

Structure (SMILES)	embryo quality score (grade 1=excellent to 4=degenerate) immediately after collection [1]	in vitro blastocyst formation [1]	embryonic hatching rate in vitro [1]	fold increase in in vitro blastocyst formation compared to RA, CIS or Control animals ([1]; p<0.05)	fold increase in hatching rate in comparison with vehicle treatment [2]	hatching rate ([2]; ROH treatment of donor ewes, p<0.05)	percentage of embryos that formed blastocysts ([2]; ROH treatment of donor ewes, winter, n=243 embryos)	blastocyst hatching [3]	blastocyst formation ([3]; n=230 embryos, p<0.05)	embryos that progressed through the 8-cell in vitro block ([3]; p<0.05)	embryonic development to the blastocyst stage, % blastocyst/cleaved embryos ([4]; 1 uM Retinol in modified synthetic oviduct fluid)	embryonic development to the blastocyst stage, % blastocyst/cleaved embryos ([4]; 10 uM Retinol in modified synthetic oviduct fluid)	pregnancy rate of recipient ewes ([5]; donors given 500,000 IU per injection on first and last day of FSH, two frozen-thawed embryos transferred, ultrasonography 30-40 days after transfer)	number of the six pregnant recipient ewes carrying twins ([5]; embryos from retinol-treated donor ewes)	survival of all transferred embryos ([5]; embryos from retinol-treated donor ewes, 30-40 days after transfer)	solubility in ethanol, methanol, ether, fats, and oil ([6]; ethanol, methanol, ether, fats, oil)	solubility in water or aqueous salt solutions ([6]; water or aqueous salt solutions)
CC1=C(/C=C/C(C)=C/C=C/C(C)=C/CO)C(C)(C)CCC1 [ROH, all-trans retinol]	1.9±0.1	72%	73%	greater than 2 fold	~3 fold	70%	70%	71%	79%	94%	48.66%	57.33%	86%	five	78.6%	soluble	practically insoluble
CC1=C(/C=C/C(C)=C/C=C/C(C)=C/C(=O)O)C(C)(C)CCC1 [RA, all-trans retinoic acid]		27%	55%														
CC1=C(/C=C/C(C)=C\C=C\C(C)=C\C(=O)O)C(C)(C)CCC1 [CIS, 9-cis retinoic acid]	2.4±0.2	33%	38%														
